The source of these data is paper PMC10004634 (PLOS ONE, 2023).

Where two headings read alike, the source gives them in different places.

Test in all cases: biochemical
Common to all, as to parameters: KINOMEscan scanMAX competition binding, DNA-tagged kinases, qPCR read-out, percent control at 300 nM
A general note: In qPCR the cycle at which signal appears reflects the starting amount.

Assay [1] deals with KIT(D816H) (Homo sapiens, UniProt P10721, D816H).
The target in assay [2] is T1, MAP4K3 (Homo sapiens, UniProt Q8IVH8).
T1 sequence (Q8IVH8 1-894): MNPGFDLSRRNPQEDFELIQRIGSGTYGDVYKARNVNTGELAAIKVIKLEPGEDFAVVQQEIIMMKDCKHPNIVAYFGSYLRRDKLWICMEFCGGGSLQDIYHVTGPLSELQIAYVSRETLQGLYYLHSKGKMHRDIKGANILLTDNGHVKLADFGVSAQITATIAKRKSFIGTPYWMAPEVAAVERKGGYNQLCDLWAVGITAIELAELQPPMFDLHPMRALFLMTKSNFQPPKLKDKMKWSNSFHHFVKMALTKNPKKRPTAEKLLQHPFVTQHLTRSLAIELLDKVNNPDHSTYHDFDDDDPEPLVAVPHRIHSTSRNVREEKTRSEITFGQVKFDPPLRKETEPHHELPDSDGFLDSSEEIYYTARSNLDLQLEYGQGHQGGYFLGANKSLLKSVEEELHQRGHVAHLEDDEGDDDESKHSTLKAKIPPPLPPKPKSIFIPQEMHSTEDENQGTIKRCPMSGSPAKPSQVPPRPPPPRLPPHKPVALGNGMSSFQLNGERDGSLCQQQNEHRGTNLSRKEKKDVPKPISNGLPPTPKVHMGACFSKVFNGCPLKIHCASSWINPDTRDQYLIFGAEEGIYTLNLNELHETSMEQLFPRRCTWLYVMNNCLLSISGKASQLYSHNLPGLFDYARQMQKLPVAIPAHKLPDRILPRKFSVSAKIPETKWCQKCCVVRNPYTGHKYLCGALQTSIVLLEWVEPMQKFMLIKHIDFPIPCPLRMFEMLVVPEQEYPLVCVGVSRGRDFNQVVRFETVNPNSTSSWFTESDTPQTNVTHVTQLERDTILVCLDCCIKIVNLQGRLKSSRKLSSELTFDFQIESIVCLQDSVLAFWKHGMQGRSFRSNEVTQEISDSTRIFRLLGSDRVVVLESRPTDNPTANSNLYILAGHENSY

Assay [3] has as its target PRKCQ (Homo sapiens, UniProt Q04759).
Assay [4] addresses T2, MLCK (Homo sapiens, UniProt Q32MK0).
T2 construct: gene MYLK3
T2 sequence (Q32MK0 1-819): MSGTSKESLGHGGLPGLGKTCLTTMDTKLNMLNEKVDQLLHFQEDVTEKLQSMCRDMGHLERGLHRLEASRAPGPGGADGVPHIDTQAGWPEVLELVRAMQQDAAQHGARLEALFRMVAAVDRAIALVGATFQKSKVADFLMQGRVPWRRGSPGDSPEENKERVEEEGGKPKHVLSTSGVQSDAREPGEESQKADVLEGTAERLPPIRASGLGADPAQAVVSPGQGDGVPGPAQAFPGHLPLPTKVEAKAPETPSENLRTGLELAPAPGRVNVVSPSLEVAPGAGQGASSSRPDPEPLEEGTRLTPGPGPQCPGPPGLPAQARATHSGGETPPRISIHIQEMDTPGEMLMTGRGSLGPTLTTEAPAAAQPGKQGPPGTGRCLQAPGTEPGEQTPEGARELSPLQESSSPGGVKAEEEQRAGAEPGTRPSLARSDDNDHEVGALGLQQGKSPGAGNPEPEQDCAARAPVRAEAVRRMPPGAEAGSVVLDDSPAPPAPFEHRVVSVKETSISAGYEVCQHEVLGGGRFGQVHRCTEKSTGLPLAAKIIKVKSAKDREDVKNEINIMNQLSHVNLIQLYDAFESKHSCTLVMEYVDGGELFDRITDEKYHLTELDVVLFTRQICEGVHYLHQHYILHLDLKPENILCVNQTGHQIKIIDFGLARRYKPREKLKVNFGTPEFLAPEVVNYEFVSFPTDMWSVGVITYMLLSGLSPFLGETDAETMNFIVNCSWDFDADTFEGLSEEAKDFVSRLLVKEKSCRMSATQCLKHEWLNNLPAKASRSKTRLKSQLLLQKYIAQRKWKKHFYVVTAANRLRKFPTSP

For assay [5], the target named is PIK3CA(Q546K) (Homo sapiens, UniProt P42336, Q546K).
Chain of PIK3CA(Q546K) (P42336 whole entry Q546K): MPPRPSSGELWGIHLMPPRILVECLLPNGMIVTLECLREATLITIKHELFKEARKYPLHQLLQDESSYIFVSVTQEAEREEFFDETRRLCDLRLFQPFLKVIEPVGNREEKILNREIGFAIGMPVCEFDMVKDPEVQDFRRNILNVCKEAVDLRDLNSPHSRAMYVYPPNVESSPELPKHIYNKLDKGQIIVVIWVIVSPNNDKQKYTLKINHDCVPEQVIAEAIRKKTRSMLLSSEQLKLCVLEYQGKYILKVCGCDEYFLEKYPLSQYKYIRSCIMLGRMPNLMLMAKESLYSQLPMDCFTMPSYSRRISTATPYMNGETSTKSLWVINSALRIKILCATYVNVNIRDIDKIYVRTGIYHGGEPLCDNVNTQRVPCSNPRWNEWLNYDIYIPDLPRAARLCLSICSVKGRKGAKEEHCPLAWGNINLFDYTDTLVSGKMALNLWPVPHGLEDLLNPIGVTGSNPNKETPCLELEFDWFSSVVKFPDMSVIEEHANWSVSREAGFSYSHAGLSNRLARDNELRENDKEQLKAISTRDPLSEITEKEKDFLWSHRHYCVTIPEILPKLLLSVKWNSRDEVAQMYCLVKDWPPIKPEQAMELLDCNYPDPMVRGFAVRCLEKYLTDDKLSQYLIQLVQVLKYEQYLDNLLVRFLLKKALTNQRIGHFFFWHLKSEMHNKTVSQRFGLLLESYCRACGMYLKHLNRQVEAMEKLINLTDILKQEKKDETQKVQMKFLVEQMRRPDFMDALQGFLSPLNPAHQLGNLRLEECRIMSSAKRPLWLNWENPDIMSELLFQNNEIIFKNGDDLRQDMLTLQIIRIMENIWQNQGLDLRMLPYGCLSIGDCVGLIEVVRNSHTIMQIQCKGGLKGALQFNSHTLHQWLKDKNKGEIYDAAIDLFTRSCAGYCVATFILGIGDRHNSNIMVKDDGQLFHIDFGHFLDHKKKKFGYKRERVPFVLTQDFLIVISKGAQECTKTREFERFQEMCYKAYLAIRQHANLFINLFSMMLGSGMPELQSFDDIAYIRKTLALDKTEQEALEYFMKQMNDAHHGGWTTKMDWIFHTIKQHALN
The target of assay [6] is T3, PRP4 (Homo sapiens, UniProt Q13523).
T3 construct: gene PRPF4B
T3 sequence (Q13523 whole entry): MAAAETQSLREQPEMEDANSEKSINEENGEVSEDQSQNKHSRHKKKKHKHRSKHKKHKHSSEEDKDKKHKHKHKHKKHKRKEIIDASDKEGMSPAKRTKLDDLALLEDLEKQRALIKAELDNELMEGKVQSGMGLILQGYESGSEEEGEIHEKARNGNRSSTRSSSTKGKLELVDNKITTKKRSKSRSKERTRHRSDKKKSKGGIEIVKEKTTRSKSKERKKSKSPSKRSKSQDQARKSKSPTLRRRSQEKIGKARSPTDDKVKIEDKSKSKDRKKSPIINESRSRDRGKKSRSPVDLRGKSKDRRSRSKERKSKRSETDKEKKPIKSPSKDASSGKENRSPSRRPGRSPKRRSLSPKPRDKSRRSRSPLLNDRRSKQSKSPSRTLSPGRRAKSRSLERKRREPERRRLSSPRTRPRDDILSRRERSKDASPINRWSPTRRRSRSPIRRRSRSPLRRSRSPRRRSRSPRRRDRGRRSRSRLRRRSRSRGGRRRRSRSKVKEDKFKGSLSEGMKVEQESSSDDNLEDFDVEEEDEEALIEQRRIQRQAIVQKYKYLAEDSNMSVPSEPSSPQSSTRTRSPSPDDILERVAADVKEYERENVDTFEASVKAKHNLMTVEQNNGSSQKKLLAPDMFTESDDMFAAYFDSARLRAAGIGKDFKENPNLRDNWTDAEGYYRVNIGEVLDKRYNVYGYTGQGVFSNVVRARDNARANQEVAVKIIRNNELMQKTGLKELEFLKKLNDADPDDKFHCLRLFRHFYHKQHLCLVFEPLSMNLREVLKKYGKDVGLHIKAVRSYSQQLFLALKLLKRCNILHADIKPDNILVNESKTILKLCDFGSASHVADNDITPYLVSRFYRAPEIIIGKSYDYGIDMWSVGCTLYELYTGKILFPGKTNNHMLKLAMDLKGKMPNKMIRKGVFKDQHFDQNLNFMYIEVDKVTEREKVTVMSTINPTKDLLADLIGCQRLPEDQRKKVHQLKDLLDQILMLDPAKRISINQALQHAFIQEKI

Setting [7] is: read-out: Percent control / Zanubrutinib.
Setting [8] is: read-out: Percent control / Tirabrutinib.
[9] abbreviates: read-out: Percent control / Ibrutinib.
[10] abbreviates: read-out: Percent control / Acalabrutinib.

Chain of KIT(D816H) (P10721 whole entry D816H): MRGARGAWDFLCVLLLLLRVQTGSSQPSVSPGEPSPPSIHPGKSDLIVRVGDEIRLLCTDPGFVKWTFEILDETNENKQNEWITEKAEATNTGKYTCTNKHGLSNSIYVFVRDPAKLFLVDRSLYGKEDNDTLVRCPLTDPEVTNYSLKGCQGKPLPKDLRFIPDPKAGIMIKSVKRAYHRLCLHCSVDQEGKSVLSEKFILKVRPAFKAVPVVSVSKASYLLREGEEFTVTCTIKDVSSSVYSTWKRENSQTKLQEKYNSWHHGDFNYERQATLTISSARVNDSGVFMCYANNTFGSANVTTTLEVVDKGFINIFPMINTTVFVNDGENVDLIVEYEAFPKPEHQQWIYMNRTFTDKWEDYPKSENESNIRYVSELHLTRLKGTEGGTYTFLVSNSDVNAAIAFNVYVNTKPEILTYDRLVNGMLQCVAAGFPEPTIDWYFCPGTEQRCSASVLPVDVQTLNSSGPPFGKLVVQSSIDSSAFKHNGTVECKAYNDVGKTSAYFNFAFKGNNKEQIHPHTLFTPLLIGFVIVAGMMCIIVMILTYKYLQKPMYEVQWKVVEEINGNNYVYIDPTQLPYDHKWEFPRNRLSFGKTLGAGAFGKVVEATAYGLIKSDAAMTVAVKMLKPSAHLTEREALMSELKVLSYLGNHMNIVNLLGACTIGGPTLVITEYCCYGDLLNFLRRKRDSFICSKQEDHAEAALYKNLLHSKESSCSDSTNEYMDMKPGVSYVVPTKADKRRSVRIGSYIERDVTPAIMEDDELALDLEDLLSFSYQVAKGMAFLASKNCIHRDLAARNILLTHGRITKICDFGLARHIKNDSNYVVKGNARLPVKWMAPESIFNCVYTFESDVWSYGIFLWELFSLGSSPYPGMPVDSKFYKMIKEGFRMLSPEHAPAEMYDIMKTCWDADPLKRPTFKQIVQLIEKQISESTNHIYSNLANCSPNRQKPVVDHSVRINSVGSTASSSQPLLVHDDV
Chain of PRKCQ (Q04759 whole entry): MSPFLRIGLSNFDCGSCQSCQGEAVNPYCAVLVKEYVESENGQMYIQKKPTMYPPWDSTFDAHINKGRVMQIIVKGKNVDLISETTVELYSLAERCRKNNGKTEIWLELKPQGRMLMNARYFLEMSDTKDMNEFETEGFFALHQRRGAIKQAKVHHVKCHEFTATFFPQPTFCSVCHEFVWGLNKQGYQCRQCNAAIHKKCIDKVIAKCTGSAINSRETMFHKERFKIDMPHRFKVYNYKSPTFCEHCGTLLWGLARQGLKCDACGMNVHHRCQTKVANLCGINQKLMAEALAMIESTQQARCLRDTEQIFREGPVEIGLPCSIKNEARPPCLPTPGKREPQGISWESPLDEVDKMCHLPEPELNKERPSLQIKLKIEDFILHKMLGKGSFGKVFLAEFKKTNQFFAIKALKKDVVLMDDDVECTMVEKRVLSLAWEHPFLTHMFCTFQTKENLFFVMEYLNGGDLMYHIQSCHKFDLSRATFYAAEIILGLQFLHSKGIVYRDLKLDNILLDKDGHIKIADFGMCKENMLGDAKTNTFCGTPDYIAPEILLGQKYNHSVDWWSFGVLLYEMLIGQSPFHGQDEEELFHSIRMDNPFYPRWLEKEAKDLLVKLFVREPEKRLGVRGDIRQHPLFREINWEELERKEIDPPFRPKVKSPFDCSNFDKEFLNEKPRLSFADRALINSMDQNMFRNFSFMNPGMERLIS

In the case of `C=CC(=O)N1CCC([C@@H]2CCNc3c(C(N)=O)c(-c4ccc(Oc5ccccc5)cc4)nn32)CC1` [Zanubrutinib], the remaining binding at 0.3 µM in assay [1] (setting [7]) came to 96%; in assay [2] (setting [7]), 91%; in assay [3] (setting [7]) it was 87%; in assay [4] (setting [7]), 84%; in assay [5] (setting [7]), 100%; in assay [6] (setting [7]), 100%.

As for `CC#CC(=O)N1CC[C@@H](n2c(=O)n(-c3ccc(Oc4ccccc4)cc3)c3c(N)ncnc32)C1` [Tirabrutinib], the remaining binding at 0.3 µM was 84% in assay [1] (setting [8]), 93% in assay [3] (setting [8]), 78% in assay [5] (setting [8]) and 99% in assay [6] (setting [8]).

With `C=CC(=O)N1CCC[C@@H](n2nc(-c3ccc(Oc4ccccc4)cc3)c3c(N)ncnc32)C1` [Ibrutinib], the remaining binding at 0.3 µM in assay [2] (setting [9]) is 89%; in assay [4] (setting [9]) it was 79%; in assay [5] (setting [9]), 62%; in assay [6] (setting [9]), 96%.

In the case of `CC#CC(=O)N1CCC[C@H]1c1nc(-c2ccc(C(=O)Nc3ccccn3)cc2)c2c(N)nccn12` [Acalabrutinib], the remaining binding at 0.3 µM in assay [1] (setting [10]) was found to be 82%; in assay [2] (setting [10]) it was 94%; in assay [3] (setting [10]), 84%; in assay [4] (setting [10]) it was 94%; in assay [5] (setting [10]), 88%.
